The results in this text go back to patent publication US20120329749A1, “Methods Of Preventing Or Treating Disease States Related To Certain Metabolic Abnormalities” (priority 2011, published 2012).

The subject of the test is erectile dysfunction. Briefly: Patient-reported erectile dysfunction symptoms.

Protocol: The patient was placed on a regimen of 5,0 mg L-methylfolate and 2 mg methyl-B12 per day.
The patient was placed on a regimen of 2.8 mg L-methylfolate and 2 mg methyl-B12 per day.
The patient was placed on a regimen of 5.0 mg L-methylfolate and 2 mg methyl-B12 per day.
The patient was placed on a regimen of L-methylfolate, methyl-B12, and pyridoxal-5-phosphate (PSP; active vitamin B6) twice per day.
The patient was placed on a regimen of L-methylfolate, methyl-B12, and pyridoxal-5-phosphate (P5P; active vitamin B6) twice per day.

As for `CCCc1nn(C)c2c(=O)[nH]c(-c3cc(S(=O)(=O)N4CCN(C)CC4)ccc3OCC)nc12` [Viagra], the “effect on erectile dysfunction (patient history)” value is “ineffective” (Patient 20, 50 mg for 2 months) and “ineffective” (Patient 21, 20 mg for 1 month).
